The source of these data is PubChem BioAssay (NCI).

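Cells were grown in 96-well plates and exposed to each compound for 48 hours at five concentrations; endpoints were interpolated linearly between bracketing concentrations, or set to the highest concentration if not reached. GI50: concentration for 50% inhibition of growth. Definition used: TGI = concentration required for complete inhibition of growth.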

Some test systems named below: 786-0 renal; BT-549 breast; HOP-62 NSCLC; NCI-H23 lung; SK-MEL-28 melanoma; SK-OV-3 ovarian; SR leukemia; T-47D breast; UACC-257 melanoma; UACC-62 melanoma.
Common to all, as to experiment: inhibition of tumour cell growth, NCI panel, 48 h

Consider `Cc1ccc(CCC(=O)Nc2ncc(Cc3cc(Cl)ccc3Cl)s2)o1`, for which the GI50 was 0.692 µM with 786-0 renal; 0.29 µM with BT-549 breast; 0.38 µM in the assay with HOP-62 NSCLC; 0.471 µM in the assay with NCI-H23 lung; 1.54 µM in the assay with SK-MEL-28 melanoma; 0.399 µM with SK-OV-3 ovarian. Moreover, the GI50 with SR leukemia is 0.0557 µM; in the assay on T-47D breast, 1.22 µM; with UACC-257 melanoma, 13.4 µM; with UACC-62 melanoma it was 0.24 µM. For the same compound, the TGI in the assay on 786-0 renal is 4.19 µM; in the assay on BT-549 breast, 2.72 µM; in the assay on HOP-62 NSCLC, 15.1 µM; in the assay with NCI-H23 lung, more than 37.7 µM; in the assay on SK-MEL-28 melanoma, more than 100 µM; in the assay on SK-OV-3 ovarian, more than 100 µM. For the same compound, the TGI with SR leukemia was 18.9 µM; in the assay on T-47D breast, more than 100 µM; with UACC-257 melanoma, more than 100 µM; with UACC-62 melanoma, more than 100 µM.
With `C=C1C(=O)OC(CCCCCCCC)C1C(=O)O` (stereo not given), the GI50 is 18.2 µM with 786-0 renal; 12.6 µM in the assay on BT-549 breast; 20.5 µM with HOP-62 NSCLC; 14.2 µM with NCI-H23 lung; 15 µM with SK-MEL-28 melanoma; 34.3 µM in the assay on SK-OV-3 ovarian. The GI50 with SR leukemia was 5.57 µM; in the assay with T-47D breast, 12.3 µM; in the assay on UACC-257 melanoma, 11.6 µM; in the assay with UACC-62 melanoma, 12.1 µM. Moreover, the TGI in the assay with 786-0 renal was 36.7 µM; with BT-549 breast, 26.6 µM; with HOP-62 NSCLC it was 39.1 µM; with NCI-H23 lung it was 29.2 µM; in the assay on SK-MEL-28 melanoma it was 29.1 µM; with SK-OV-3 ovarian it was more than 77.9 µM. The TGI was determined as 44.9 µM in the assay on SR leukemia, 30.6 µM in the assay with T-47D breast, 25 µM with UACC-257 melanoma and 24.7 µM with UACC-62 melanoma.
For the compound `CC(C)Oc1cc(OCC(=O)O)cc(C(=O)N(CCC(N)=O)C(=O)Nc2ccc(C(=O)O)cc2OC(C)C)c1`, the GI50 with 786-0 renal, in the assay with BT-549 breast, with HOP-62 NSCLC, with NCI-H23 lung, in the assay with SK-MEL-28 melanoma and with SK-OV-3 ovarian was more than 100 µM each time. The GI50 in the assay with SR leukemia, in the assay with T-47D breast, in the assay on UACC-257 melanoma and in the assay with UACC-62 melanoma was more than 100 µM each time. Besides, the TGI in the assay with 786-0 renal, with BT-549 breast, with HOP-62 NSCLC, with NCI-H23 lung, in the assay with SK-MEL-28 melanoma and in the assay with SK-OV-3 ovarian was more than 100 µM in each case. Further, the TGI in the assay on SR leukemia, in the assay on T-47D breast, with UACC-257 melanoma and in the assay with UACC-62 melanoma was more than 100 µM throughout.
Take `O=C1CCCC1C(=O)Nc1ccc2ccccc2c1` (stereo not given): the TGI in the assay on 786-0 renal, in the assay with BT-549 breast, in the assay with HOP-62 NSCLC, in the assay with NCI-H23 lung, with SK-MEL-28 melanoma and in the assay with SK-OV-3 ovarian was more than 100 µM each time. The TGI with SR leukemia, in the assay on T-47D breast, with UACC-257 melanoma and with UACC-62 melanoma was more than 100 µM throughout.
Consider `CC1(CCCC2(C)CCNC2=O)OCCO1` (stereo not given), for which the TGI in the assay on 786-0 renal, in the assay with BT-549 breast, in the assay with HOP-62 NSCLC, in the assay with NCI-H23 lung, with SK-MEL-28 melanoma and in the assay on SK-OV-3 ovarian was more than 10 µM in each case. Besides, the TGI in the assay with SR leukemia, in the assay on T-47D breast, with UACC-257 melanoma and in the assay on UACC-62 melanoma was more than 10 µM in each case.
For the compound `O=C(CCCCCCc1nc2ccc(Br)cc2[nH]1)NO`, the GI50 in the assay on 786-0 renal is 1.03 µM; with BT-549 breast, 1.69 µM; in the assay with HOP-62 NSCLC, 0.632 µM; in the assay with NCI-H23 lung it was 0.507 µM; in the assay on SK-MEL-28 melanoma, 0.703 µM; in the assay on SK-OV-3 ovarian, 0.628 µM. The GI50 with SR leukemia is 0.148 µM; in the assay on T-47D breast, 0.23 µM; with UACC-257 melanoma, 0.354 µM; in the assay on UACC-62 melanoma, 0.189 µM. For the same compound, the TGI in the assay on 786-0 renal amounted to 10.7 µM; in the assay with BT-549 breast, 32.3 µM; in the assay with HOP-62 NSCLC, 14.6 µM; in the assay on NCI-H23 lung, 4.89 µM; with SK-MEL-28 melanoma, 2.75 µM; with SK-OV-3 ovarian, 3.52 µM. Moreover, the TGI with SR leukemia is more than 100 µM; in the assay with T-47D breast, more than 100 µM; with UACC-257 melanoma, 7.17 µM; with UACC-62 melanoma it was 1.17 µM.
As to `O=c1ccc2nc(-c3ccccc3)nn(-c3ccccc3)c-2c1`, the GI50 in the assay with 786-0 renal was 1.84 µM; in the assay on BT-549 breast, 2.19 µM; in the assay on HOP-62 NSCLC, 5.34 µM; in the assay on NCI-H23 lung it was 2.26 µM; in the assay on SK-MEL-28 melanoma, 1.63 µM; in the assay on SK-OV-3 ovarian, 13.3 µM. The GI50 was 0.309 µM in the assay on SR leukemia, 0.485 µM with T-47D breast, 1.56 µM with UACC-257 melanoma and 1.84 µM in the assay with UACC-62 melanoma. The TGI in the assay on 786-0 renal stood at 3.36 µM; with BT-549 breast, 4.43 µM; in the assay with HOP-62 NSCLC, 26.1 µM; with NCI-H23 lung it was 5.6 µM; with SK-MEL-28 melanoma, 3.11 µM; with SK-OV-3 ovarian, 26.6 µM. The TGI with SR leukemia was 1.52 µM; with T-47D breast, 1.26 µM; in the assay on UACC-257 melanoma, 2.94 µM; with UACC-62 melanoma it was 4.13 µM.
For the compound `Cc1ncc(C(=O)Nc2ccc(CN3CCN(C)CC3)c(C(F)(F)F)c2)cc1C#Cc1c(N)ncc2ccc(C#N)cc12`, the GI50 in the assay with 786-0 renal was 1.19 µM; in the assay with BT-549 breast, 2.71 µM; in the assay with HOP-62 NSCLC, 0.988 µM; with NCI-H23 lung it was 0.936 µM; in the assay on SK-MEL-28 melanoma, 0.0676 µM; in the assay with SK-OV-3 ovarian it was 1.7 µM. Also, the GI50 in the assay on SR leukemia was 1.42 µM; in the assay on T-47D breast, more than 14.5 µM; in the assay on UACC-257 melanoma, 0.473 µM; in the assay on UACC-62 melanoma, 0.0362 µM. The TGI in the assay on 786-0 renal is 3.06 µM; in the assay on BT-549 breast, 11.2 µM; in the assay with HOP-62 NSCLC, 11.2 µM; in the assay on NCI-H23 lung, 8.58 µM; in the assay on SK-MEL-28 melanoma it was 1.91 µM; with SK-OV-3 ovarian it was 10.9 µM. The TGI with SR leukemia is 12.2 µM; with T-47D breast it was more than 50 µM; in the assay with UACC-257 melanoma, 10.5 µM; with UACC-62 melanoma, 6.1 µM.
For the compound `CC1CN(CCO)CC(C)O1` (stereo not given), the TGI with 786-0 renal, with BT-549 breast, in the assay on HOP-62 NSCLC, with NCI-H23 lung, in the assay with SK-MEL-28 melanoma and in the assay on SK-OV-3 ovarian was more than 100 µM in each case. Further, the TGI with SR leukemia, in the assay on T-47D breast, in the assay on UACC-257 melanoma and in the assay on UACC-62 melanoma was more than 100 µM each time.
With `CC[C@]1(O)C[C@@H]2CN(Cc3c([nH]c4ccccc34)[C@@](C(=O)OC)(c3cc4c(cc3OC)N(C)[C@H]3[C@@](O)(C(=O)OC)[C@H](OC(C)=O)[C@]5(CC)[C@@H]6C[C@@H]6CN6CC[C@]43[C@@H]65)C2)C1`, the GI50 in the assay with 786-0 renal was 0.713 µM; in the assay on BT-549 breast it was 0.365 µM; with HOP-62 NSCLC, 0.153 µM; with NCI-H23 lung it was 0.195 µM; with SK-MEL-28 melanoma it was 0.0822 µM; in the assay on SK-OV-3 ovarian, 0.0841 µM. Besides, the GI50 is 0.0174 µM in the assay on SR leukemia, 0.0562 µM in the assay with T-47D breast, more than 4.38 µM in the assay with UACC-257 melanoma and 0.0578 µM in the assay on UACC-62 melanoma. The TGI in the assay on 786-0 renal, with BT-549 breast, in the assay on HOP-62 NSCLC, in the assay with NCI-H23 lung, with SK-MEL-28 melanoma and in the assay on SK-OV-3 ovarian was more than 4.38 µM each time. Further, the TGI with SR leukemia, in the assay on T-47D breast, with UACC-257 melanoma and in the assay with UACC-62 melanoma was more than 4.38 µM each time.
Turning to `COc1ccc(C2SC(N)=Nc3c2c(C)nn3C(=O)c2ccncc2)cc1` (stereo not given), the TGI with 786-0 renal, with BT-549 breast, with HOP-62 NSCLC, in the assay with NCI-H23 lung, with SK-MEL-28 melanoma and in the assay on SK-OV-3 ovarian was more than 100 µM throughout. The TGI was 73 µM with SR leukemia, more than 100 µM in the assay on T-47D breast, more than 100 µM with UACC-257 melanoma and more than 100 µM with UACC-62 melanoma.
Consider `O=P(O)(O)OC1C(OP(=O)(O)O)C(OP(=O)(O)O)C(OP(=O)(O)O)C(OP(=O)(O)O)C1OP(=O)(O)O` (stereo not given), for which the GI50 in the assay with 786-0 renal was more than 2000 µM; in the assay on BT-549 breast, more than 1690 µM; in the assay with HOP-62 NSCLC, more than 2000 µM; in the assay on NCI-H23 lung it was more than 2000 µM; with SK-MEL-28 melanoma it was more than 2000 µM; in the assay with SK-OV-3 ovarian, more than 2000 µM. The GI50 in the assay with SR leukemia was more than 1780 µM; in the assay with T-47D breast, more than 2000 µM; with UACC-257 melanoma it was more than 2000 µM; in the assay on UACC-62 melanoma, more than 2000 µM. The TGI with 786-0 renal, in the assay on BT-549 breast, in the assay on HOP-62 NSCLC, with NCI-H23 lung, with SK-MEL-28 melanoma and in the assay with SK-OV-3 ovarian was more than 2000 µM each time. Also, the TGI in the assay with SR leukemia, in the assay with T-47D breast, in the assay on UACC-257 melanoma and in the assay on UACC-62 melanoma was more than 2000 µM throughout.
